{"source": "patent US20250092383A1", "about": "“COMPOUNDS AND METHODS FOR FBXO22-MEDIATED PROTEIN DEGRADATION” (Northwestern University, priority 2023, published 2025)", "key": {"FBXO22": {"target": "T1, FBXO22 (Homo sapiens, UniProt Q8NEZ5)", "T1 construct": "expressed in transfected cells; host or cells: HEK293T", "T1 sequence (Q8NEZ5 1-403)": "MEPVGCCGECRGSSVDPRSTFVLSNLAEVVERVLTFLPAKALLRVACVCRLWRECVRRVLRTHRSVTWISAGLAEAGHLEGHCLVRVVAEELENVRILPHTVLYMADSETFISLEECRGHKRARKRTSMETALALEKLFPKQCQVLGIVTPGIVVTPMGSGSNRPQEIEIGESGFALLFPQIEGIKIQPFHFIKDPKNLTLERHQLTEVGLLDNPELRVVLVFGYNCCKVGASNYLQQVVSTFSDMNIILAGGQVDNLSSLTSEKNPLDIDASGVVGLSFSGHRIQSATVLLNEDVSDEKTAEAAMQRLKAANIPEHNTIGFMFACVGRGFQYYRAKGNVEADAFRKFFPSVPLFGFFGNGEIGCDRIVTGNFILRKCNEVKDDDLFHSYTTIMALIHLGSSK", "experiment": "Competitive cysteine-directed activity-based protein profiling (ABPP)", "format": "binding", "text": "FIGS. 3A-3H show FBXO22 C227 and C228 are involved in 22-SLF-mediated degradation of FKBP12. […] Among 5,650 quantified IA-DTB-modified peptides, four cysteines were identified on FBXO22 (C83, C117, C228, and C365). […] Data are presented as the mean values (n=2 biological independent samples for DMSO treatment; n=3 biological independent samples for 22-SLF Treatment). […] The bag graph represents quantification of the FLAG-FKBP12/HSP90 protein content. Data are presented as mean values (n=2 biological independent samples). […] The bar graph represents quantification of the FLAG-FKBP12/HSP90 protein content. Data are presented as the mean values (n=2 biological independent samples).\nTo identify the cysteine residue(s) in FBXO22 engaged with 22-SLF, HA-FBXO22-expressing HEK293T cells were treated with either DMSO or 22-SLF (2 μM, 2 hours). Using competitive cysteine-directed activity-based protein profiling (ABPP), a chemical proteomics for the measurement of target engagement, the degree of blockade of iodoacetamide-desthiobiotin (IA-DTB)-modified cysteines on FBXO22 was quantified. From a pool of 5,650 quantified IA-DTB-modified peptides, four cysteines on FBXO22 (C83, C117, C228, and C365) (FIG. 3a) were identified, with approximately 20% of FBXO22 C228 being blocked by 22-SLF treatment (FIG. 3b), indicating the potential interaction with this cysteine by 22-SLF. […]"}, "FKBP12-EGFP": {"target": "T2, FKBP12-EGFP (Homo sapiens, UniProt P62942)", "T2 construct": "expressed in transfected cells", "T2 sequence (P62942 whole entry)": "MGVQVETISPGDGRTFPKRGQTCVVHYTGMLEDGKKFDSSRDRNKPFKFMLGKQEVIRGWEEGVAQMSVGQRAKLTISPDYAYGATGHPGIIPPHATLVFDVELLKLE", "experiment": "Fluorescence quantification of FKBP12-EGFP levels in HEK293T cells", "format": "cell-based", "conditions": "HEK293T CRISPR activation cells with FBXO22-activating sgRNAs; 2 μM, 24 hours", "description": "FIGS. 1A-1E show an E3 ligase focused CRISPR-Cas9 transcriptional activation screen identifies FBXO22 that supports 22-SLF-induced reduction in FKBP12-EGFP expression levels. FIG. 1A is a schematic representation of the steps in the CRISPR-Cas9 transcriptional activation screen. […] FIG. 1C is a volcano plot showing the E3 ligase focused CRISPR-Cas9 transcriptional activation screen for FKBP12-EGFP degradation after treatment of 2 μM 22-SLF in HEK293T CRISPR-Cas9 transcriptional activation cells for 24 hours. […] The statistical significance was evaluated through unpaired two-tailed Student's t-tests, comparing cells transduced with FBXO22 sgRNA to control sgRNA. Statistical significance denoted ****P<0.0001. […] The statistical significance was evaluated through unpaired two-tailed Student's t-tests, comparing cells treated with 22-SLF to DMSO. Statistical significance denoted as ***P<0.001 and ns: not significant.\nFIGS. 6A-6E show generation of CRISPR-Cas9 transcriptional activation cells for the discovery of E3 ligases supporting the degradation of FKBP12-EGFP. […] The statistical significance was evaluated through unpaired two-tailed Student's t-tests, comparing cells treated with Len-SLF or SLF to DMSO. […] The statistical significance was evaluated through unpaired two-tailed Student's t-tests, comparing cells transduced with IL-1β sgRNA to control sgRNA. […]"}}}
{"compound": "CCC(C)(C)C(=O)C(=O)N1CCCC[C@H]1C(=O)O[C@H](CCc1ccc(OC)c(OC)c1)c1cccc(OCC(=O)NCCCOCCOCCOCCCN(C(=O)CCl)C(C(=O)NCc2ccccc2)c2nc3ccccc3s2)c1", "note": "(stereo partly drawn) [22-SLF]", "values": [{"measurement": "Blockade of IA-DTB-modified FBXO22 C228", "setting": "FBXO22; 2 μM, 2 hours, HA-FBXO22-expressing HEK293T cells", "value": "approximately 20%"}, {"measurement": "Engagement of FBXO22 C227", "setting": "FBXO22; FIG. 3b", "value": "approximately 20%"}, {"measurement": "FKBP12-EGFP expression in FBXO22-activated cells", "setting": "FKBP12-EGFP", "value": "loss of FKBP12-EGFP expression"}]}
